Measurements: patent US20250009819A1, “NOVEL PROBIOTICS AND USE THEREOF” (PBLBIOLAB CO., LTD., priority 2021, published 2025)

Columns and labels:
Format in all cases: in vivo, C57BL/6 male mice
[1] = tested on: animals with LPS-induced cognitive impairment; test: Animals with LPS-induced cognitive impairment: improvement effect in spleen; details: LPS-treated mice, 1×10^9 CFU/mouse or sulfasalazine 50 mg/kg once a day for 5 days; for Foxp3 (fold change) / Tbet (fold change) / Tbet/Foxp3: spleen qPCR; for IFN-γ/IL-10 / IL-10 / Interferon (IFN)-γ / NK cell cytoxicity (%) / Phagocytosis (%) / TNF-α / TNF-α/IL-10: spleen
Protocol: (§1) Hippocampus, colon, and spleen tissues were homogenized by adding 1 ml of RIPA buffer (Gibco) containing protease inhibitor cocktail and centrifuged at 4° C., 13000 rpm for 15 min to obtain supernatant. Indicators of this supernatant were measured using an ELISA kit (Ebioscience).
(§2) mRNA was isolated from spleen tissue using the RNA Isolation Kit: RNeasy Mini Kit (QIAGEN), converted to cDNA, and qPCR was performed to measure the expression rates of Tbet, Foxp3, and glyceraldehyde 3-phosphate dehydrogenase (GAPDH). The reaction product was first treated at 95° C. for 30 seconds, followed by 38 cycles of 5 seconds at 95° C. and 30 seconds at 72° C. for analysis.
C57BL/6 male mice (5 weeks old, 19-21 g) were divided (6 mice in each group) and acclimatized to the laboratory for 1 week. To induce intestinal and brain diseases, mice were intraperitoneally administered Escherichia coli-derived LPS (10 μg/kg) once daily for 5 days. […] Experimental animals in the normal group were orally administered with a physiological saline solution, which was used to suspend lactic acid bacteria. The day following the conclusion of sample administration, the experimental animals were sacrificed, and samples from the brain hippocampus, colon, and spleen were collected. In the Hippocampus, inflammatory indicators, such as IFN-γ, TNF-α, and IL-10, were measured using ELISA. In the colon, intestinal length and inflammatory indicators, such as IFN-γ, TNF-α, and IL-10, were measured. In the spleen, Th1 cells and Treg cells were measured by FACS (Fluorescence-Activated Cell Sorting).

[2] = tested on: immunosuppressed animals induced by anticancer drug (cyclophosphamide); test: Immunosuppressed animals induced by cyclophosphamide: colitis improvement (colon); details: cyclophosphamide (CP)-treated mice, 1×10^9 CFU/mouse orally once a day for 5 days
Protocol: (§3) To 100 mg of colon tissue, 200 μl of 10 mM potassium phosphate buffer (pH 7.0) containing 0.5% hexadecyl trimethyl ammonium bromide was added and homogenized. Then, the supernatant was obtained by centrifugation for 10 minutes at 4° C. and 10,000 g. A volume of 50 μl of the supernatant was added to 0.95 mk of reaction solution (containing 1.6 mM tetramethyl benzidine and 0.1 mM H2O2), reacted at 37° C., and absorbance was monitored over time at 650 nm.
as §1
C57BL/6 male mice (5 weeks old, 19-21 g) were divided (6 mice in each group) and acclimatized to the laboratory for 1 week. To induce intestinal and brain diseases, the mice were administered with cyclophosphamide (CP, 150 mg/kg, dissolved in physiological saline) for 1 day, rested for 1 day, and then administered intraperitoneally the next day. Meanwhile, the normal group was administered intraperitoneally with 0.1 ml of physiological saline. […] The day following the conclusion of sample administration, the experimental animals were sacrificed, and samples from the brain hippocampus, colon, and spleen were collected. In the Hippocampus, inflammatory indicators, such as IFN-γ, TNF-α, and IL-10, were measured using ELISA. In the colon, intestinal length and inflammatory indicators, such as IFN-γ, TNF-α, and IL-10, were measured. In the spleen, Th1 cells and Treg cells were measured by FACS (Fluorescence-Activated Cell Sorting).

[3] = tested on: animals with antibiotic-induced gut microbiota imbalance; test: Animals with antibiotic (ampicillin)-induced gut microbiota imbalance: colitis improvement (colon); details: ampicillin (AP)-treated mice, 1×10^9 CFU/mouse orally once a day for 5 days
Protocol: as §3, §1
(§4) C57BL/6 male mice (5 weeks old, 19-21 g) were divided (6 mice in each group) and acclimatized to the laboratory for 1 week. To induce intestinal and brain diseases, the mice were orally administered with ampicillin (AP, 100 mg/kg, dissolved in physiological saline) for 3 days. Meanwhile, the normal group was orally administered with 0.1 ml of physiological saline. […] The day following the conclusion of sample administration, the experimental animals were sacrificed, and samples from the brain hippocampus, colon, and spleen were collected. In the Hippocampus, inflammatory indicators, such as IFN-γ, TNF-α, and IL-10, were measured using ELISA. In the colon, intestinal length and inflammatory indicators, such as IFN-γ, TNF-α, and IL-10, were measured. In the spleen, Th1 cells and Treg cells were measured by FACS (Fluorescence-Activated Cell Sorting), and in feces, endotoxin (LPS) and gut microbial communities were measured.

[4] = tested on: animals with antibiotic-induced gut microbiota imbalance; test: Animals with antibiotic (ampicillin)-induced gut microbiota imbalance: improvement effect in spleen; details: ampicillin (AP)-treated mice, 1×10^9 CFU/mouse orally once a day for 5 days; for Foxp3 (fold change) / Tbet (fold change) / Tbet/Foxp3: spleen qPCR; for IFN-γ/IL-10 / IL-10 / Interferon (IFN)-γ / NK cell cytoxicity (%) / Phagocytosis (%) / TNF-a/IL-10 / TNF-α: spleen
Protocol: as §1, §2, §4

healthy animal = test: Healthy animal: colon parameters; details: healthy mice, 1×10^9 CFU/mouse orally once a day for 5 days
Protocol: as §3, §1
C57BL/6 male mice (5 weeks old, 19-21 g) were divided (6 mice in each group) and acclimatized to the laboratory for 1 week. The mice were orally administered once a day for 5 days with lactic acid bacteria as a test sample suspended in physiological saline solution at a concentration of 1×10^9 CFU per mouse (NK210 alone (LR): 1×10^9 CFU/mouse, NK219 alone (BL): 1×10^9 CFU/mouse, combined (210+219): 210, 8×10^8 CFU/mouse and 219, 2×10^8 CFU/mouse). […] The day following the conclusion of sample administration, the experimental animals were sacrificed, and samples from the brain hippocampus, colon, and spleen were collected. In the Hippocampus, inflammatory indicators, such as IFN-γ, TNF-α, and IL-10, were measured using ELISA. In the colon, intestinal length and inflammatory indicators, such as IFN-γ, TNF-α, and IL-10, were measured. In the spleen, Th1 cells and Treg cells were measured by FACS (Fluorescence-Activated Cell Sorting).

Bifidobacterium longum NK219
Foxp3 (fold change) [1]: 1.32 fold change | Tbet (fold change) [1]: 1.27 fold change | Tbet/Foxp3 [1]: 1.05 | IFN-γ/IL-10 [1]: 1.32 | IL-10 [1]: 8.71 pg/mg | Interferon (IFN)-γ [1]: 11.29 pg/mg | NK cell cytoxicity (%) [1]: 6.93% | Phagocytosis (%) [1]: 34.55% | TNF-α [1]: 4.00 pg/mg | TNF-α/IL-10 [1]: 0.47 | Colon (cm) [2]: 4.95 cm | IFN-γ/IL-10 [2]: 3.32 | IL-10 [2]: 13.00 pg/mg | Interferon (IFN)-γ [2]: 38.64 pg/mg | MPO activity [2]: 4.62 μUnit/mg | TNF-a/IL-10 [2]: 2.12 | TNF-α [2]: 26.73 pg/mg | Colon (cm) [3]: 5.45 cm | IFN-γ/IL-10 [3]: 0.26 | IL-10 [3]: 26.75 pg/mg | Interferon (IFN)-γ [3]: 5.84 pg/mg | MPO activity [3]: 14.76 μUnit/mg | TNF-a/IL-10 [3]: 1.16 | TNF-α [3]: 28.27 pg/mg | Foxp3 (fold change) [4]: 1.66 fold change | Tbet (fold change) [4]: 1.03 fold change | Tbet/Foxp3 [4]: 0.74 | IFN-γ/IL-10 [4]: 0.81 | IL-10 [4]: 11.35 pg/mg | Interferon (IFN)-γ [4]: 9.12 pg/mg | NK cell cytoxicity (%) [4]: 6.47% | Phagocytosis (%) [4]: 69.91% | TNF-a/IL-10 [4]: 0.40 | TNF-α [4]: 4.32 pg/mg | Colon (cm) (healthy animal): 5.03 cm | IFN-γ/IL-10 (healthy animal): 1.52 | IL-10 (healthy animal): 42.89 pg/mg | Interferon (IFN)-γ (healthy animal): 64.83 pg/mg | MPO activity (healthy animal): 3.53 μUnit/mg | TNF-a/IL-10 (healthy animal): 0.37 | TNF-α (healthy animal): 15.73 pg/mg

Lactobacillus rhamnosus NK210
Foxp3 (fold change) [1]: 1.07 fold change | Tbet (fold change) [1]: 1.58 fold change | Tbet/Foxp3 [1]: 1.55 | IFN-γ/IL-10 [1]: 1.15 | IL-10 [1]: 10.49 pg/mg | Interferon (IFN)-γ [1]: 11.92 pg/mg | NK cell cytoxicity (%) [1]: 7.78% | Phagocytosis (%) [1]: 36.01% | TNF-α [1]: 4.00 pg/mg | TNF-α/IL-10 [1]: 0.38 | Colon (cm) [2]: 4.98 cm | IFN-γ/IL-10 [2]: 3.05 | IL-10 [2]: 9.65 pg/mg | Interferon (IFN)-γ [2]: 28.79 pg/mg | MPO activity [2]: 4.79 μUnit/mg | TNF-a/IL-10 [2]: 2.19 | TNF-α [2]: 20.60 pg/mg | Colon (cm) [3]: 5.28 cm | IFN-γ/IL-10 [3]: 0.31 | IL-10 [3]: 21.31 pg/mg | Interferon (IFN)-γ [3]: 5.94 pg/mg | MPO activity [3]: 11.60 μUnit/mg | TNF-a/IL-10 [3]: 1.43 | TNF-α [3]: 22.86 pg/mg | Foxp3 (fold change) [4]: 0.69 fold change | Tbet (fold change) [4]: 1.07 fold change | Tbet/Foxp3 [4]: 1.66 | IFN-γ/IL-10 [4]: 0.87 | IL-10 [4]: 8.25 pg/mg | Interferon (IFN)-γ [4]: 7.03 pg/mg | NK cell cytoxicity (%) [4]: 7.34% | Phagocytosis (%) [4]: 74.02% | TNF-a/IL-10 [4]: 0.45 | TNF-α [4]: 3.57 pg/mg | Colon (cm) (healthy animal): 5.12 cm | IFN-γ/IL-10 (healthy animal): 1.40 | IL-10 (healthy animal): 39.95 pg/mg | Interferon (IFN)-γ (healthy animal): 55.75 pg/mg | MPO activity (healthy animal): 4.18 μUnit/mg | TNF-a/IL-10 (healthy animal): 0.34 | TNF-α (healthy animal): 13.40 pg/mg
